Ki data for 38 molecules are collected here from US7998978B2 (Pfizer Inc., priority 2006, dated 2011).

The target of the experiment is T1, JNK1α1 (Homo sapiens, UniProt P45983).
T1 construct: catalytic domain containing amino acids 1-364 and N-terminal hexahistidine tag; hexahistidine (His6) (N); made in house; host or cells: E. coli BL21 (DE3)
The experiment in a line: Coupled spectrophotometric (PK/LDH) JNK1α1 assay: % inhibition and Ki determination. The format is biochemical. As to conditions: JNK-1. An outline of the steps: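 Initial rates were taken from the absorbance decrease at 340 nm at 30° C. Ki was fitted with a tight-binding model over 11 concentrations (top 100 μM); single-point inhibition was tested at 1 or 10 μM.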

T1 sequence (P45983 1-364): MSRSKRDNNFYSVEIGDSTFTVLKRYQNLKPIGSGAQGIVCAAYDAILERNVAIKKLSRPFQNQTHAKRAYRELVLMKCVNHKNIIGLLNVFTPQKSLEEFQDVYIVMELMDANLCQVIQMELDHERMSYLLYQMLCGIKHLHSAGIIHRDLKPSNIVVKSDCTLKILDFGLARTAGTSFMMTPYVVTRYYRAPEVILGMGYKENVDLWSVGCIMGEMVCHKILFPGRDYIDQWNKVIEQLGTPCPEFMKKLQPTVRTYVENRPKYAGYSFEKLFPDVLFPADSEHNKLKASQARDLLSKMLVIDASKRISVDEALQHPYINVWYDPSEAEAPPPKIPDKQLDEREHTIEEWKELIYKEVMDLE

`CC(=O)N1CC[C@@H](NC(=O)c2ccc3cnc(N[C@H]4CC[C@H](O)CC4)nc3c2)C1` [Example 371, N-[(3R)-1-acetylpyrrolidin-3-yl]-2-[(trans-4-hydroxycyclohexyl)amino]quinazoline-7-carboxamide] displayed a Ki of 2490 nM.

As to `O=C(N[C@H](CO)c1ccccc1)c1ccc2cnc(N[C@H]3CC[C@H](O)CC3)nc2c1` [Example 372, 2-[(trans-4-hydroxycyclohexyl)amino]-N-[(1S)-2-hydroxy-1-phenylethyl]quinazoline-7-carboxamide], the Ki was determined as 73.5 nM.

`O=C(N[C@H](CO)c1ccccc1)c1ccc2cnc(NC3CCCCC3)nc2c1` [Example 373, 2-(cyclohexylamino)-N-[(1S)-2-hydroxy-1-phenylethyl]quinazoline-7-carboxamide] returned an inhibitory constant (Ki) of 74 nM.

Take `CC(C)C[C@@H](CO)NC(=O)c1ccc2cnc(NC3CCCCC3)nc2c1` [Example 374, 2-(cyclohexylamino)-N-[(1S)-1-(hydroxymethyl)-3-methylbutyl]quinazoline-7-carboxamide]: the affinity, expressed as Ki, was 102 nM.

The molecule `CC(C)C[C@@H](CO)NC(=O)c1ccc2cnc(N[C@H]3CC[C@H](O)CC3)nc2c1` [Example 375, 2-[(trans-4-hydroxycyclohexyl)amino]-N-[(1S)-1-(hydroxymethyl)-3-methylbutyl]quinazoiine-7-carboxamide] registered a Ki of 107 nM.

`CCC[C@@H](CO)NC(=O)c1ccc2cnc(NC3CCCCC3)nc2c1` [Example 376, 2-(cyclohexylamino)-N-[(1S)-1-(hydroxymethyl)butyl]quinazoline-7-carboxamide] registered a Ki of 139 nM.

Take `CCC[C@@H](CO)NC(=O)c1ccc2cnc(N[C@H]3CC[C@H](O)CC3)nc2c1` [Example 377, 2-[(trans-4-hydroxycyclohexyl)amino]-N-[(1S)-1-(hydroxymethyl)butyl]quinazoline-7-carboxamide]: the Ki is 147 nM.

In turn, `CC[C@H](C)[C@@H](CO)NC(=O)c1ccc2cnc(N[C@H]3CC[C@H](O)CC3)nc2c1` [Example 378, 2-((trans-4-hydroxycyclohexyl)amino]-N-[(1S,2S)-1-(hydroxymethyl)-2-methylbutyl]quinazoline-7-carboxamide] had an inhibition constant Ki of 160 nM.

`O=C(NC(CO)c1ccccc1)c1ccc2cnc(NC3CCCC3)nc2c1` (centres unmarked) [Example 379, 2-(cyclopentylamino)-N-(2-hydroxy-1-phenylethyl)quinazoline-7-carboxamide] displayed a Ki of 177 nM.

Molecule `CC[C@H](C)[C@@H](CO)NC(=O)c1ccc2cnc(NC3CCCCC3)nc2c1` [Example 380, 2-(cyclohexylamino)-N-[(1S,2S)-1-(hydroxymethyl)-2-methylbutyl]quinazoline-7-carboxamide] displayed a Ki of 187 nM.

In the case of `CC(C)[C@@H](CO)NC(=O)c1ccc2cnc(N[C@H]3CC[C@H](O)CC3)nc2c1` [Example 382, 2-[(trans-4-hydroxycyclohexyl)amino]-N-[(1S)-1-(hydroxymethyl)-2-methylpropyl]quinazoline-7-carboxamide], the Ki is 195 nM.

Molecule `O=C(NC(CO)c1ccccc1)c1ccc2cnc(NC3CCC3)nc2c1` (centres unmarked) [Example 383, 2-(cyclobutylamino)-N-(2-hydroxy-1-phenylethyl)quinazoline-7-carboxamide] gave a Ki of 200 nM.

Molecule `O=C(N[C@H](CO)c1ccccc1)c1ccc2cnc(NC3CCCC3)nc2c1` [Example 384, 2-(cyclopentylamino)-N-[(1S)-2-hydroxy-1-phenylethyl]quinazoline-7-carboxamide] yielded an inhibition constant (Ki) of 257 nM.

Consider `CC(C)Nc1ncc2ccc(C(=O)NC(CO)c3ccccc3)cc2n1` (centres unmarked) [Example 385, N-(2-hydroxy-1-phenylethyl)-2-(isopropylamino)quinazoline-7-carboxamide], for which the Ki stood at 263 nM.

`O=C(N[C@H](CO)CC1CCCCC1)c1ccc2cnc(N[C@H]3CC[C@H](O)CC3)nc2c1` [Example 386, N-[(1S)-2-cyclohexyl-1-(hydroxymethyl)ethyl]-2-[(trans-4-hydroxycyclohexyl)amino]quinazoline-7-carboxamide] came in with an inhibitory constant (Ki) of 271 nM.

The molecule `CCC[C@@H](CO)NC(=O)c1ccc2cnc(NC3CCCC3)nc2c1` [Example 387, 2-(cyclopentylamino)-N-[(1S)-1-(hydroxymethyl)butyl]quinazoline-7-carboxamide] showed an inhibitory constant (Ki) of 297 nM.

`CC[C@@H](CO)NC(=O)c1ccc2cnc(NC3CCCCC3)nc2c1` [Example 388, 2-(cyctohexylamino)-N-[(1S)-1-(hydroxymethyl)propyl]quinazoline-7-carboxamide] yielded a Ki of 303 nM.

On to `CC(C)[C@@H](CO)NC(=O)c1ccc2cnc(NC3CCCCC3)nc2c1` [Example 389, 2-(cyclohexylamino)-N-[(1S)-1-(hydroxymethyl)-2-methylpropyl]quinazoline-7-carboxamide], for which the affinity, expressed as Ki, was 318 nM.

In the case of `CC(C)C[C@@H](CO)NC(=O)c1ccc2cnc(NC3CCCC3)nc2c1` [Example 390, 2-(cyclopentylamino)-N-[(1S)-1-(hydroxymethyl)-3-methylbutyl]quinazoline-7-carboxamide], the inhibition constant Ki was 333 nM.

Consider `CC(C)C[C@@H](CO)NC(=O)c1ccc2cnc(NC(C)C)nc2c1` [Example 391, N-[(1S)-1-(hydroxymethyl)-3-methylbutyl]-2-(isopropylamino)quinazoline-7-carboxamide], for which the affinity, expressed as Ki, was 365 nM.

Take `O=C(N[C@H](CO)c1ccccc1)c1ccc2cnc(NC3CCC3)nc2c1` [Example 392, 2-(cyclobutylamino)-N-[(1S)-2-hydroxy-1-phenylethyl]quinazoline-7-carboxamide]: affinity was put at a Ki of 385 nM.

With `O=C(N[C@H](CO)CC1CCCCC1)c1ccc2cnc(NC3CCCCC3)nc2c1` [Example 393, 2-(cyclohexylamino)-N-[(1S)-2-cyclohexyl-1-(hydroxymethyl)ethyl]quinazoline-7-carboxamide], the inhibition constant Ki came to 387 nM.

Regarding `CC(C)Nc1ncc2ccc(C(=O)N[C@H](CO)c3ccccc3)cc2n1` [Example 394, N-[(1S)-2-hydroxy-1-phenylethyl]-2-(isopropylamino)quinazoline-7-carboxamide], the Ki amounted to 391 nM.

Take `O=C(N[C@H](CO)Cc1ccccc1)c1ccc2cnc(NC3CCCCC3)nc2c1` [Example 395, N-[(1S)-1-benzyl-2-hydroxyethyl]-2-(cyclohexylamino)quinazoline-7-carboxamide]: the Ki came to 422 nM.

Turning to `CC[C@H](C)[C@@H](CO)NC(=O)c1ccc2cnc(NC3CCCC3)nc2c1` [Example 396], the inhibition constant Ki came to 424 nM.

Regarding `CC(C)C[C@@H](CO)NC(=O)c1ccc2cnc(NC3CCC3)nc2c1` [Example 397, 2-(cyclobutylamino)-N-[(1S)-1-(hydroxymethyl)-3-methylbutyl]quinazoline-7-carboxamide], the affinity, expressed as Ki, was 428 nM.

`CCC[C@@H](CO)NC(=O)c1ccc2cnc(NC3CCC3)nc2c1` [Example 398, 2-(cyclobutylamino)-N-[(1S)-1-(hydroxymethyl)butyl]quinazoline-7-carboxamide]: the inhibition constant Ki worked out at 447 nM.

As to `C[C@@H](CO)NC(=O)c1ccc2cnc(NC3CCCCC3)nc2c1` [Example 399, 2-(cyclohexylamino)-N-[(1S)-2-hydroxy-1-methylethyl]quinazoline-7-carboxamide], the affinity corresponds to a Ki of 461 nM.

In turn, `O=C(NC1(CO)CCCC1)c1ccc2cnc(N[C@H]3CC[C@H](O)CC3)nc2c1` [Example 400, 2-[(trans-4-hydroxycyclohexyl)amino]-N-[1-(hydroxymethyl)cyclopentyl]quinazoline-7-carboxamide] gave an inhibition constant (Ki) of 478 nM.

In the case of `O=C(NC1(CO)CCCC1)c1ccc2cnc(NC3CCCCC3)nc2c1` [Example 401, 2-(cyclohexylamino)-N-[1-(hydroxymethyl)cyclopentyl]quinazoline-7-carboxamide], the Ki came to 490 nM.

`O=C(N[C@H](CO)Cc1ccccc1)c1ccc2cnc(N[C@H]3CC[C@H](O)CC3)nc2c1` [Example 402, N-[(1S)-1-benzyl-2-hydroxyethyl]-2-[(trans-4-hydroxycyclohexyl)amino]quinazoline-7-carboxamide] came in with a Ki of 605 nM.

For `C[C@@H](CO)NC(=O)c1ccc2cnc(N[C@H]3CC[C@H](O)CC3)nc2c1` [Example 403, 2-[(trans-4-hydroxycyclohexyl)amino]-N-[(1S)-2-hydroxy-1-methylethyl]quinazoline-7-carboxamide], the inhibition constant (Ki) is 637 nM.

`O=C(N[C@@H]1COC[C@H]1O)c1ccc2cnc(N[C@H]3CC[C@H](O)CC3)nc2c1` [Example 404, 2-[(trans-4-hydroxycyclohexyl)amino]-N-[(3R,4S)-4-hydroxytetrahydrofuran-3-yl]quinazoline-7-carboxamide] returned an inhibition constant (Ki) of 667 nM.

Consider `O=C(N[C@@H]1COC[C@H]1O)c1ccc2cnc(NC3CCCCC3)nc2c1` [Example 405, 2-(cyclohexylamino)-N-[(3R,4S)-4-hydroxytetrahydrofuran-3-yl]quinazoline-7-carboxamide], for which the Ki is 722 nM.

For the molecule `CCC[C@@H](CO)NC(=O)c1ccc2cnc(NC(C)C)nc2c1` [Example 406, N-[(1S)-1-(hydroxymethyl)butyl]-2-(isopropylamino)quinazoline-7-carboxamide], the Ki was 730 nM.

`CC(C)[C@@H](CO)NC(=O)c1ccc2cnc(NC3CCCC3)nc2c1` [Example 407, 2-(cyclopentylamino)-N-[(1S)-1-(hydroxymethyl)-2-methylpropyl]quinazoline-7-carboxamide] registered an inhibition constant (Ki) of 735 nM.

Consider `O=C(N[C@H](CO)Cc1ccccc1)c1ccc2cnc(NC3CCCC3)nc2c1` [Example 408, N-[(1S)-1-benzyl-2-hydroxyethyl]-2-(cyclopentylamino)quinazoline-7-carboxamide], for which the affinity corresponds to a Ki of 743 nM.

With `CC[C@H](C)[C@@H](CO)NC(=O)c1ccc2cnc(NC(C)C)nc2c1` [Example 409, N-[(1S,2S)-1-(hydroxymethyl)-2-methylbutyl]-2-(isopropylamino)quinazoline-7-carboxamide], the Ki amounted to 772 nM.
